In publication PMC9256654, “Mechanistic basis for maintenance of CHG DNA methylation in plants” (Nature Communications, 2022):

Biological target: T1, CMT3 (Arabidopsis thaliana, UniProt Q94F88)
T1 construct: residues 42-839; N-terminal His6-SUMO tag removed by ULP1; E. coli BL21(DE3) RIL
T1 sequence (Q94F88 42-839): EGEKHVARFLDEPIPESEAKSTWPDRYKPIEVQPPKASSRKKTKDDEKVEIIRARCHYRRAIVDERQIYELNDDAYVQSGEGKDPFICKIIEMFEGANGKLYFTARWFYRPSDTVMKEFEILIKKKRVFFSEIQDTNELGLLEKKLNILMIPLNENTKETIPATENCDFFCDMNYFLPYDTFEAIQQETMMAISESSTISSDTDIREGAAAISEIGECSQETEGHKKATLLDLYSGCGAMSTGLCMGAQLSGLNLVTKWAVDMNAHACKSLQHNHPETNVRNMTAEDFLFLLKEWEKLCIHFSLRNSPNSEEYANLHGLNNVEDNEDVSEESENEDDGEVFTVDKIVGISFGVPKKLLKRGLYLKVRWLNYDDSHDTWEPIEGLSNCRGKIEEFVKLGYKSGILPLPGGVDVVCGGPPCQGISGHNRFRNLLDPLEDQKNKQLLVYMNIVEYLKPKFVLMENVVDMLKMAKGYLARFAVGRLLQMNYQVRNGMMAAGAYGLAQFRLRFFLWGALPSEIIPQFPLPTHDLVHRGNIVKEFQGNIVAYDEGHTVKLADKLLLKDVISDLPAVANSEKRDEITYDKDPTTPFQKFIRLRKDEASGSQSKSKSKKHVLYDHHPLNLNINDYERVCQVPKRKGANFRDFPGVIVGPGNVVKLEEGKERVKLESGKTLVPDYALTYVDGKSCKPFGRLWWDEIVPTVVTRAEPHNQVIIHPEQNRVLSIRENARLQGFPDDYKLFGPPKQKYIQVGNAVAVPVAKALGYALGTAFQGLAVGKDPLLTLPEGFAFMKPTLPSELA
Assay: radiometric DNA methylation assay (3H-methyl transfer, nylon membrane)
Type: biochemical
Settings: labelled compound; 0.56 uM [3H]SAM plus 1.96 uM SAM; 4.0 uM DNA; 4.0 uM histone peptide; no added NaCl; pH 8.0, 37 C, 1 h

For C[S+](CC[C@H](N)C(=O)O)C[C@H]1O[C@@H](n2cnc3c(N)ncnc32)[C@H](O)[C@@H]1O (stereo partly drawn) [SAM, S-adenosyl-L-methionine], the “radiometric DNA methylation assay (3H-methyl transfer, nylon membrane)” value was “All the rest of the reaction conditions for CMT3 were the same as those for ZMET2”.
